In patent publication US20220119411A1, “IMMUNOMODULATORS, COMPOSITIONS AND METHODS THEREOF” (BETTA PHARMACEUTICALS CO., LTD, priority 2018, published 2022) one finds IC50 data, which are given here for 24 compounds.

The target in the assay is T1, PD-1/PD-L1 protein/protein interaction (Homo sapiens, UniProt Q9NZQ7).
T1 construct: Recombinant human PD-L1 protein (19-238) with a His-tag at the C-terminus; purchased AcroBiosystems PD1-H5229 (PD-L1); PD1-H5257 (PD-1)
T1 sequence (Q9NZQ7 19-238): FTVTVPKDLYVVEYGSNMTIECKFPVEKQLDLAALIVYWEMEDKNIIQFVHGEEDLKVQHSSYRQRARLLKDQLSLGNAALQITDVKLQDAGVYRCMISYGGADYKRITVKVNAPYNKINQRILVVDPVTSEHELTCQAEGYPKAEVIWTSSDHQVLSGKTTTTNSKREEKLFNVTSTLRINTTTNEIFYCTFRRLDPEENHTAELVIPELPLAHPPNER
Put plainly: PD-1/PD-L1 homogenous time-resolved fluorescence (HTRF) binding assay. The settings on record: recombinant human PD-L1 (19-238)-His 10 nM, human PD-1 (25-167)-Fc 3 nM, 25° C., PBS pH 7.4. As to the method:
Resolved Fluorescence (HTRF) Binding Assay
The assays were conducted in a standard black 384-well polystyrene plate with a final volume of 20 μL. Inhibitors were first serially diluted in DMSO and then added to the plate wells before the addition of other reaction components. The final concentration of DMSO in the assay was 1%. The assays were carried out at 25° C. in the PBS buffer (pH 7.4) with 0.05% Tween-20 and 0.1% BSA. Recombinant human PD-L1 protein (19-238) with a His-tag at the C-terminus was purchased from AcroBiosy stems (PD1-H5229). Recombinant human PD-1 protein (25-167) with Fc tag at the C-terminus was also purchased from AcroBiosystems (PD1-H5257). PD-L1 and PD-1 proteins were diluted in the assay buffer and 10 μL was added to the plate well. Plates were centrifuged and proteins were preincubated with inhibitors for 40 min. The incubation was followed by the addition of 10 μL of HTRF detection buffer supplemented with Europium cryptate-labeled anti-human IgG (PerkinElmer-AD0212) specific for Fc and anti-His antibody conjugated to SureLight®—Allophycocyanin (APC, PerkinElmer-AD0059H). After centrifugation, the plate was incubated at 25° C. for 60 min. Before reading on a PHERAstar FS plate reader (665 nm/620 nm ratio). Final concentrations in the assay were—3 nM PD1, 10 nM PD-L1, 1 nM europium anti-human IgG and 20 nM anti-His-Allophycocyanin. IC50 determination was performed by fitting the curve of percent control activity versus the log of the inhibitor concentration using the GraphPad Prism 5.0 software.
Data obtained for the Example compounds using the PD-1/PD-L1 homogenous time-resolved fluorescence (HTRF) binding assay described in Example A is provided in Table 2.
As to `Cc1c(NC(=O)c2ccccn2)cccc1-c1cccc2c1CCN2C(=O)c1nc2c(s1)CN(CC(=O)O)CC2` [Example 27, 2-(2-(4-(2-methyl-3-(picolinamido)phenyl)indoline-1-carbonyl)-6,7-dihydrothiazolo[5,4-c]pyridin-5(4H)-yl)acetic acid], the IC50 is ≤ 25 nM. Then `O=C(O)CN1CCc2nc(C(=O)N3CCCc4c(-c5ccccc5)cccc43)sc2C1` [Example 28, 2-(2-(5-phenyl-1,2,3,4-tetrahydroquinoline-1-carbonyl)-6,7-dihydrothiazolo[5,4-c]pyridin-5(4H)-yl)acetic acid], with 25 to 100 nM; and `Cc1c(Nc2nccc3nccnc23)cccc1-c1cccc2c1CCN2C(=O)c1nc2c(s1)CN(CC(=O)O)CC2` [Example 29, 2-(2-(4-(2-methyl-3-(pyrido[3,4-b]pyrazin-5-ylamino)phenyl)indoline-1-carbonyl)-6,7-dihydrothiazolo[5,4-c]pyridin-5(4H)-yl)acetic acid], with 25 to 100 nM; and `Cn1ncc2c(-c3cccc4c3CCN4C(=O)c3nc4c(s3)CN(CC(=O)O)CC4)cccc21` [Example 30, 2-(2-(4-(1-methyl-1H-indazol-4-yl)indoline-1-carbonyl)-6,7-dihydrothiazolo[5,4-c]pyridin-5(4H)-yl)acetic acid], with ≤ 25 nM. As for `Cc1c(NC(=O)c2nc3c(n2C)CNCC3)cccc1-c1cccc2c1CCN2C(=O)c1nc2c(s1)CN(CC(=O)O)CC2` [Example 31, 2-(2-(4-(2-methyl-3-(3-methyl-4,5,6,7-tetrahydro-3H-imidazo[4,5-c]pyridine-2-carboxamido)phenyl)indoline-1-carbonyl)-6,7-dihydrothiazolo[5,4-c]pyridin-5(4H)-yl)acetic acid], the IC50 is ≤ 25 nM. To `Cc1c(NC(=O)c2nc3c(n2C)CCNC3)cccc1-c1cccc2c1CCN2C(=O)c1nc2c(s1)CN(CC(=O)O)CC2` [Example 32, 2-(2-(4-(2-methyl-3-(1-methyl-4,5,6,7-tetrahydro-1H-imidazo[4,5-c]pyridine-2-carboxamido)phenyl)indoline-1-carbonyl)-6,7-dihydrothiazolo[5,4-c]pyridin-5(4H)-yl)acetic acid] belongs ≤ 25 nM; to `Cc1c(NC(=O)CCN2CCC(O)C2)cccc1-c1cccc2c1CCN2C(=O)c1nc2c(n1C)CN(CC(=O)O)CC2` (stereo not drawn) [Example 33, 2-(2-(4-(3-(3-(3-hydroxypyrrolidin-1-yl)propanamido)-2-methylphenyl)indoline-1-carbonyl)-3-methyl-3,4,6,7-tetrahydro-5H-imidazo[4,5-c]pyridin-5-yl)acetic acid], ≤ 25 nM; to `Cc1c(NC(=O)CCN2CCC(O)C2)cccc1-c1cccc2c1CCN2C(=O)c1nc2c(n1C)CNCC2` (stereo not drawn) [Example 34, 3-(3-hydroxypyrrolidin-1-yl)-N-(2-methyl-3-(1-(3-methyl-4,5,6,7-tetrahydro-3H-imidazo[4,5-c]pyridine-2-carbonyl)indolin-4-yl)phenyl)propanamide], ≤ 25 nM. For `Cn1c(C(=O)N2CCc3c(-c4cccc5c4CCN5C(=O)CCN4CCC(O)C4)cccc32)nc2c1CN(CC(=O)O)CC2` (stereo not drawn) [Example 35, 2-(2-(1′-(3-(3-hydroxypyrrolidin-1-yl)propanoyl)-[4,4′-biindoline]-1-carbonyl)-3-methyl-3,4,6,7-tetrahydro-5H-imidazo[4,5-c]pyridin-5-yl)acetic acid], the IC50 is ≤ 25 nM. To `Cc1c(OCCCN2CCC(O)C2)cccc1-c1cccc2c1CCN2C(=O)c1nc2c(n1C)CN(CC(=O)O)CC2` (stereo not drawn) [Example 36, 2-(2-(4-(3-(3-(3-hydroxypyrrolidin-1-yl)propoxy)-2-methylphenyl)indoline-1-carbonyl)-3-methyl-3,4,6,7-tetrahydro-5H-imidazo[4,5-c]pyridin-5-yl)acetic acid] belongs ≤ 25 nM; to `Cc1c(OCCCN2CCC(O)C2)cccc1-c1cccc2c1CCN2C(=O)c1nc2c(n1C)CCN(CC(=O)O)C2` (stereo not drawn) [Example 37, 2-(2-(4-(3-(3-(3-hydroxypyrrolidin-1-yl)propoxy)-2-methylphenyl)indoline-1-carbonyl)-1-methyl-1,4,6,7-tetrahydro-5H-imidazo[4,5-c]pyridin-5-yl)acetic acid], ≤ 25 nM; to `Cc1c(OCCCN2CCC(O)C2)cccc1-c1cccc2c1CCN2C(=O)c1nc2c(n1C)CCNC2` (stereo not drawn) [Example 38, (4-(3-(3-(3-hydroxypyrrolidin-1-yl)propoxy)-2-methylphenyl)indolin-1-yl)(1-methyl-4,5,6,7-tetrahydro-1H-imidazo[4,5-c]pyridin-2-yl)methanone], ≤ 25 nM. Regarding `Cc1c(OCCCN2CCC(O)C2)cccc1-c1cccc2c1CCN2C(=O)c1nc2c(n1C)CNCC2` (stereo not drawn) [Example 39, (4-(3-(3-(3-hydroxypyrrolidin-1-yl)propoxy)-2-methylphenyl)indolin-1-yl)(3-methyl-4,5,6,7-tetrahydro-3H-imidazo[4,5-c]pyridin-2-yl)methanone], the IC50 is ≤ 25 nM. Regarding `Cn1c(C(=O)N2CCc3c(-c4cccc5c4CCN5CCCN4CCC(O)C4)cccc32)nc2c1CCNC2` (stereo not drawn) [Example 40, (1′-(3-(3-hydroxypyrrolidin-1-yl)propyl)-[4,4′-biindolin]-1-yl)(1-methyl-4,5,6,7-tetrahydro-1H-imidazo[4,5-c]pyridin-2-yl)methanone], the IC50 lay in the range of 25 to 100 nM. In the case of `Cc1c(OCCCN2CCC(O)C2)cccc1-c1cccc2c1CCN2C(=O)c1cn2c(n1)CNCC2` (stereo not drawn) [Example 41, (4-(3-(3-(3-hydroxypyrrolidin-1-yl)propoxy)-2-methylphenyl)indolin-1-yl)(5,6,7,8-tetrahydroimidazo[1,2-a]pyrazin-2-yl)methanone], the IC50 was ≤ 25 nM. In the case of `O=C(CCN1CCC(O)C1)N1CCc2c(-c3cccc4c3CCN4C(=O)c3cn4c(n3)CNCC4)cccc21` (stereo not drawn) [Example 42, 3-(3-hydroxypyrrolidin-1-yl)-1-(1′-(5,6,7,8-tetrahydroimidazo[1,2-a]pyrazine-2-carbonyl)-[4,4′-biindolin]-1-yl)propan-1-one], the IC50 was ≤ 25 nM. As for `Cc1c(OCCCN2CCC(O)C2)cccc1-c1cccc2c1CCN2C(=O)c1nnc(CN)s1` (stereo not drawn) [Example 43, (5-(aminomethyl)-1,3,4-thiadiazol-2-yl)(4-(3-(3-(3-hydroxypyrrolidin-1-yl)propoxy)-2-methylphenyl)indolin-1-yl)methanone], the IC50 is ≤ 25 nM. To `Cc1c(OCCCN2CCC(O)C2)cccc1-c1cccc2c1CCN2C(=O)c1nnc([C@@H]2CCCN2)s1` (stereo partly drawn) [Example 44, (4-(3-(3-(3-hydroxypyrrolidin-1-yl)propoxy)-2-methylphenyl)indolin-1-yl)(5-((S)-pyrrolidin-2-yl)-1,3,4-thiadiazol-2-yl)methanone] belongs ≤ 25 nM; to `Cc1c(OCCCN2CCCC2)cccc1-c1cccc2c1CCN2C(=O)c1ncc(CNCCO)s1` [Example 45, (5-(((2-hydroxyethyl)amino)methyl)thiazol-2-yl)(4-(2-methyl-3-(3-(pyrrolidin-1-yl)propoxy)phenyl)indolin-1-yl)methanone], ≤ 25 nM.

With `Cc1nc(C(=O)N2CCc3c(-c4cccc5c4CCN5C(=O)CCN4CCC(O)C4)cccc32)sc1CNCCO` (stereo not drawn) [Example 46, 1-(1′-(5-(((2-hydroxyethyl)amino)methyl)-4-methylthiazole-2-carbonyl)-[4,4′-biindolin]-1-yl)-3-(3-hydroxypyrrolidin-1-yl)propan-1-one], the IC50 is ≤ 25 nM. Then `O=C(c1cn2c(n1)CNCC2)N1CCc2c(-c3cccc4c3cnn4CCCN3CCOCC3)cccc21` [Example 47, (4-(1-(3-morpholinopropyl)-1H-indazol-4-yl)indolin-1-yl)(5,6,7,8-tetrahydroimidazo[1,2-a]pyrazin-2-yl)methanone], with 25 to 100 nM; and `Cn1ncc2c(-c3cccc4c3CCN4C(=O)c3cn4c(n3)CNCC4)cccc21` [Example 48, (4-(1-methyl-1H-indazol-4-yl)indolin-1-yl)(5,6,7,8-tetrahydroimidazo[1,2-a]pyrazin-2-yl)methanone], with 100 to 200 nM; and `O=C(O)CN1CCc2nc(C(=O)N3CCc4c(-c5ccc(NC(=O)CCN6CCC(O)C6)cc5)cccc43)sc2C1` (stereo not drawn) [Example 49, 2-(2-(4-(4-(3-(3-hydroxypyrrolidin-1-yl)propanamido)phenyl)indoline-1-carbonyl)-6,7-dihydrothiazolo[5,4-c]pyridin-5(4H)-yl)acetic acid], with ≤ 25 nM. In the case of `O=C(O)CN1CCc2nc(C(=O)N3CCc4c(-c5ccc(OCCCN6CCC(O)C6)cc5)cccc43)sc2C1` (stereo not drawn) [Example 50, 2-(2-(4-(4-(3-(3-hydroxypyrrolidin-1-yl)propoxy)phenyl)indoline-1-carbonyl)-6,7-dihydrothiazolo[5,4-c]pyridin-5(4H)-yl)acetic acid], the IC50 was ≤ 25 nM.
